Test systems include SN12C renal; EKVX NSCLC; UO-31 renal; MCF7 breast; PC-3 prostate; SF-295 CNS; NCI/ADR-RES ovarian; CAKI-1 renal; SNB-75 CNS; HT29 colon; SK-MEL-28 melanoma; HCC-2998 colon.
What all share (experiment): NCI-60 cell line screen, 48 h

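Cultured in 96-well plates, cells were exposed to test compound for 48 hours across five concentrations. The concentration for full growth arrest is given as TGI.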 Bounds are passed on as bounds.

Regarding `COc1ccc(N)c(C(O)CCNC(C)=O)c1` (stereo unspecified), the TGI in the experiment on SN12C renal, with EKVX NSCLC, in the experiment with UO-31 renal, in the experiment on MCF7 breast, with PC-3 prostate and in the experiment with SF-295 CNS was greater than 100 µM each time. Besides, the TGI with NCI/ADR-RES ovarian, with CAKI-1 renal, in the experiment on SNB-75 CNS and with HT29 colon was greater than 100 µM each time.

As to `O=c1[nH]c(=O)n(C2CC(O)C(CO)O2)cc1NN=NCCc1ccccc1` (stereo unspecified), the TGI with SN12C renal, in the experiment with SK-MEL-28 melanoma, in the experiment with EKVX NSCLC, in the experiment on UO-31 renal, in the experiment on MCF7 breast and in the experiment on PC-3 prostate was greater than 100 µM in each case. Also, the TGI in the experiment with SF-295 CNS, in the experiment with NCI/ADR-RES ovarian, with CAKI-1 renal, in the experiment with SNB-75 CNS and in the experiment with HT29 colon was greater than 100 µM each time.

For `O=S(=O)(C(=Ic1ccccc1)S(=O)(=O)C(F)(F)C(F)(F)C(F)(F)C(F)(F)F)C(F)(F)C(F)(F)C(F)(F)C(F)(F)F`, the TGI with SK-MEL-28 melanoma was determined as 29.4 µM; with EKVX NSCLC it was 37.1 µM; with UO-31 renal it was 25.8 µM; with MCF7 breast, 18.1 µM; in the experiment with PC-3 prostate, 31.6 µM; in the experiment with SF-295 CNS, 30.6 µM. For the same compound, the TGI in the experiment on NCI/ADR-RES ovarian stood at 59.8 µM; in the experiment with CAKI-1 renal, 25.9 µM; in the experiment on SNB-75 CNS, 28.5 µM; with HCC-2998 colon, 40.4 µM; with HT29 colon, 31.4 µM.

Turning to `CCN(CC)CCNc1ccc2ncn3c4c(OC)ccc(OC)c4c(=O)c1c23`, the TGI is 39.2 µM in the experiment with SK-MEL-28 melanoma; 35.6 µM in the experiment with EKVX NSCLC; greater than 100 µM in the experiment on UO-31 renal; 17 µM in the experiment with MCF7 breast; 29.7 µM in the experiment with SF-295 CNS; 31.1 µM with NCI/ADR-RES ovarian. In addition, the TGI is greater than 100 µM with CAKI-1 renal, 23.3 µM in the experiment on SNB-75 CNS and 31 µM with HCC-2998 colon.

Regarding `Oc1ccc(Cl)cc1-c1[nH]c(=S)nc(-c2ccccc2)c1Cl`, the TGI with SN12C renal was greater than 100 µM; in the experiment on SK-MEL-28 melanoma it was greater than 100 µM; with UO-31 renal, greater than 100 µM; in the experiment with MCF7 breast it was greater than 100 µM; in the experiment with PC-3 prostate, greater than 100 µM; in the experiment on SF-295 CNS, greater than 87.8 µM. The TGI is greater than 100 µM in the experiment with NCI/ADR-RES ovarian, greater than 100 µM in the experiment with CAKI-1 renal, 70.1 µM in the experiment on SNB-75 CNS and greater than 31.6 µM in the experiment on HT29 colon.

For `COc1ccc(C2=C(Cl)c3cc(OC)c(OC)cc3C2=O)cc1OC`, the TGI with SN12C renal was 32.9 µM; with EKVX NSCLC it was 37.9 µM; with UO-31 renal, 30.2 µM; in the experiment with MCF7 breast it was 27.9 µM; with SF-295 CNS, greater than 100 µM; in the experiment with NCI/ADR-RES ovarian, 51.5 µM. The TGI with CAKI-1 renal is 4.24 µM; in the experiment with SNB-75 CNS, greater than 100 µM; in the experiment on HCC-2998 colon, 38.9 µM; in the experiment with HT29 colon, greater than 100 µM.

Take `COC(=O)c1ccc(Oc2nc3ccccc3nc2-c2cccs2)cc1`: the TGI in the experiment on SN12C renal, in the experiment on SK-MEL-28 melanoma, in the experiment with EKVX NSCLC, with UO-31 renal, with MCF7 breast and in the experiment with PC-3 prostate was greater than 100 µM in each case. The TGI with SF-295 CNS was 48 µM; in the experiment on NCI/ADR-RES ovarian, greater than 100 µM; with CAKI-1 renal it was greater than 100 µM; in the experiment on SNB-75 CNS it was 26 µM; in the experiment on HT29 colon, greater than 100 µM.

As for `CN1CCC(CNC(=O)CCCCCCCCC(=O)NCC2(c3ccccc3)CCN(C)CC2)(c2ccccc2)CC1`, the TGI in the experiment on SN12C renal was greater than 100 µM; in the experiment on SK-MEL-28 melanoma, greater than 100 µM; with EKVX NSCLC, 38.8 µM; in the experiment on UO-31 renal, greater than 100 µM; with MCF7 breast, greater than 100 µM; with PC-3 prostate, greater than 100 µM. Also, the TGI in the experiment on SF-295 CNS, in the experiment with NCI/ADR-RES ovarian, in the experiment with SNB-75 CNS, with HCC-2998 colon and with HT29 colon was greater than 100 µM each time.

Turning to `C=CCN1C(=O)CC1N(CC=C)S(=O)(=O)c1ccc(C)cc1` (stereo unspecified), the TGI in the experiment with SN12C renal, with SK-MEL-28 melanoma, in the experiment on EKVX NSCLC, in the experiment on UO-31 renal, in the experiment on MCF7 breast and with PC-3 prostate was greater than 100 µM each time. Further, the TGI with SF-295 CNS, in the experiment with NCI/ADR-RES ovarian, in the experiment with CAKI-1 renal, with HCC-2998 colon and in the experiment with HT29 colon was greater than 100 µM in each case.

For the compound `CC(C)(C)OC(=O)NC1CC=CCC1NC(=O)OC(C)(C)C` (stereo unspecified), the TGI in the experiment with SN12C renal, with SK-MEL-28 melanoma, with UO-31 renal, in the experiment with MCF7 breast, in the experiment with PC-3 prostate and with SF-295 CNS was greater than 100 µM in each case. Besides, the TGI with NCI/ADR-RES ovarian, in the experiment on CAKI-1 renal, in the experiment on SNB-75 CNS, in the experiment on HCC-2998 colon and in the experiment on HT29 colon was greater than 100 µM in each case.

As for `O=C1NCN(c2ccccc2)C12CCN(CCc1ccc3[nH]c(=S)[nH]c3c1)CC2`, the TGI was greater than 100 µM with SN12C renal; 20.3 µM in the experiment on SK-MEL-28 melanoma; greater than 100 µM with EKVX NSCLC; 92.8 µM with MCF7 breast; 75.1 µM in the experiment on PC-3 prostate; greater than 100 µM in the experiment on SF-295 CNS. Moreover, the TGI in the experiment on NCI/ADR-RES ovarian, with CAKI-1 renal and in the experiment on HT29 colon was greater than 100 µM in each case.

In the case of `CC1=NN(c2nc(N)nc(/C(C#N)=C/c3ccc([N+](=O)[O-])o3)n2)C(C)(C)C1`, the TGI was 19.1 µM in the experiment with SK-MEL-28 melanoma; 9.04 µM in the experiment with EKVX NSCLC; 31.8 µM with UO-31 renal; 3.21 µM in the experiment with MCF7 breast; 21.5 µM in the experiment with PC-3 prostate; 33.8 µM with SF-295 CNS. Besides, the TGI in the experiment on NCI/ADR-RES ovarian was greater than 49.9 µM; with CAKI-1 renal, 3.81 µM; in the experiment with SNB-75 CNS, 10.1 µM; with HCC-2998 colon, 39.4 µM; in the experiment on HT29 colon it was 4.37 µM.

As for `O=C(c1ccco1)C1CC(c2ccc3ccccc3c2O)=NN1` (stereo unspecified), the TGI in the experiment on SN12C renal, in the experiment with SK-MEL-28 melanoma, in the experiment on UO-31 renal, in the experiment on MCF7 breast, in the experiment on PC-3 prostate and with SF-295 CNS was greater than 100 µM in each case. Also, the TGI in the experiment with NCI/ADR-RES ovarian, in the experiment with CAKI-1 renal, with SNB-75 CNS, in the experiment on HCC-2998 colon and in the experiment on HT29 colon was greater than 100 µM in each case.

Values taken from PubChem BioAssay (NCI).
